In US9688678B2, “Oxindole compounds carrying a nitrogen-bound spiro substituent and use thereof for treating vasopressin-related diseases” (AbbVie Deutschland GmbH & Co. KG, priority 2014, dated 2017):
pKi: −log10 of the molar value.

What was measured:
[1] = target: human vasopressin V1a receptor (Homo sapiens (Human), UniProt P37288); test: Vasopressin V1a receptor binding assay; settings: selectivity quotient, human V1a vs human V1b receptor
Description: The test substances were dissolved in a concentration of 5 mM M in DMSO. Further dilution of these DMSO solutions took place as described for V1b.
The membrane pellet was again homogenized in a High-Pressure-Homogenizer, Polytec 50K at 1500 PSI (Heinemann, Germany) and subsequently taken up in 50 mM Tris-HCl, pH 7.4, homogenized and stored in aliquots frozen in liquid nitrogen at −190° C.
(§1) The incubation buffer was: 50 mM Tris, 10 mM MgCl2, 0.1% BSA, pH 7.4.
Duplicate determinations were carried out.
After incubation (60 minutes at room temperature), the samples were processed as described for V1b.
(§2) The binding parameters were calculated by nonlinear regression in SAS.

[2] = target: human vasopressin V1b receptor (Homo sapiens (Human), UniProt P47901); test: Vasopressin V1b receptor binding assay; settings: membranes from CHO-K1 cells, displacement of 3H-AVP
Description: The test substances were dissolved in a concentration of 5 mM in 100% DMSO and further diluted to 5×10^−4 M to 5×10^−9 M. These serial DMSO predilutions were diluted 1:10 with assay buffer. The substance concentration was further diluted 1:5 in the assay mixture resulting in 2% DMSO in the mixture. All dilutions were performed in a Biomek NX automation workstation (Beckman)
The membrane pellet was again homogenized and centrifuged as described and subsequently taken up in 50 mM Tris-HCl, pH 7.4, homogenized and stored in aliquots frozen in liquid nitrogen at −190° C.
as §1
All determinations were carried out as duplicate determinations. […] The liquid scintillation measurement took place in a Microbeta TriLux 12 (Wallac). Analysis:
as §2

Chain of human vasopressin V1b receptor (P47901 whole entry): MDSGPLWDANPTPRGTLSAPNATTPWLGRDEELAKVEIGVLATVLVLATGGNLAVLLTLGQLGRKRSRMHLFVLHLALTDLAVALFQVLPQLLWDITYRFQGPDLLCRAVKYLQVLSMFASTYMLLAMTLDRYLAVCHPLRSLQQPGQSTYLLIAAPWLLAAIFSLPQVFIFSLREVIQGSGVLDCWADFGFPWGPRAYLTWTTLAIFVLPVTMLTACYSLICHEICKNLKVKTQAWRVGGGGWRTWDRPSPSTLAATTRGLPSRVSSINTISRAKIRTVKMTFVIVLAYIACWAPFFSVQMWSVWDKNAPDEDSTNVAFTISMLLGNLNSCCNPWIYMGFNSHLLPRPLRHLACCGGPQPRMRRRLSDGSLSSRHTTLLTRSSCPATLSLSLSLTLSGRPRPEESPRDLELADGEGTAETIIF
Chain of human vasopressin V1a receptor (P37288 whole entry): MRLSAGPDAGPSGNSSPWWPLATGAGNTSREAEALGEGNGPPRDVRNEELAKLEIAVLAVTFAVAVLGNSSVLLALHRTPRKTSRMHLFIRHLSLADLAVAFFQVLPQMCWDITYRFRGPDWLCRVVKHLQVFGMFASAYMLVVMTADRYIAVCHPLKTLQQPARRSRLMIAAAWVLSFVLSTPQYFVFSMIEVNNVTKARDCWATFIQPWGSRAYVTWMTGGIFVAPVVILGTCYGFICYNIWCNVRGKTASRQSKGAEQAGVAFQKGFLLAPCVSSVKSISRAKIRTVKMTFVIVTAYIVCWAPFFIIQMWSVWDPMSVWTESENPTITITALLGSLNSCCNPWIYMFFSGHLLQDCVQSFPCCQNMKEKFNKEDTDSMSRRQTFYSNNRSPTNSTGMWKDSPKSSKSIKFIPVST

Row | Ki(h-V1a)/ Ki(h-V1b) [1] | pKi [2] | Structure (SMILES)
1 | +++ (>75) | 8.00 to 9.00 | CCOc1ccccc1C1(N2CC3(CN(C4CCN(C)CC4)C3)C2)C(=O)N(S(=O)(=O)c2ccc(OC)cn2)c2ccc(C#N)cc21 (racemic) [Example 8, (±)-3-(2-ethoxyphenyl)-1-[(5-methoxy-2-pyridyl)sulfonyl]-3-[2-(1-methyl-4-piperidyl)-2,6-diazaspiro[3.3]heptan-6-yl]-2-oxo-indoline-5-carbonitrile]
2 | +++ (>75) | 8.00 to 9.00 | CCOc1ncccc1C1(N2CC3(CN(C4CCN(C)CC4)C3)C2)C(=O)N(S(=O)(=O)c2ccc(OC)cn2)c2ccc(C#N)cc21 (racemic) [Example 9, (±)-3-(2-ethoxy-3-pyridyl)-1-[(5-methoxy-2-pyridyl)sulfonyl]-3-[2-(1-methyl-4-piperidyl)-2,6-diazaspiro[3.3]heptan-6-yl]-2-oxo-indoline-5-carbonitrile]
3 | +++ (>75) | 8.00 to 9.00 | CCOc1ccc(OC)cc1C1(N2CC3(CN(C4CCN(C5COC5)CC4)C3)C2)C(=O)N(S(=O)(=O)c2ccc(OC)cn2)c2ccc(C#N)cc21 (racemic) [Example 10, (±)-3-(2-ethoxy-5-methoxy-phenyl)-1-[(5-methoxy-2-pyridyl)sulfonyl]-3-[2-[1-(oxetan-3-yl)-4-piperidyl]-2,6-diazaspiro[3.3]heptan-6-yl]-2-oxo-indoline-5-carbonitrile]
4 | +++ (>75) | 7.00 to 8.00 | CCOc1ccc(OC)cc1C1(N2CC3(CN(C4CCN(C)CC4)C3)C2)C(=O)N(S(=O)(=O)c2ccc(C#N)cc2)c2ccc(C#N)cc21 (racemic) [Example 14, (±)-1-(4-cyanophenyl)sulfonyl-3-(2-ethoxy-5-methoxy-phenyl)-3-[2-(1-methyl-4-piperidyl)-2,6-diazaspiro[3.3]heptan-6-yl]-2-oxo-indoline-5-carbonitrile]
5 | ++ (25-75) | 7.00 to 8.00 | CCOc1ccc(OC)cc1C1(N2CC3(CN(C4CCN(C)CC4)C3)C2)C(=O)N(S(=O)(=O)c2ccc(C)cc2)c2ccc(C#N)cc21 (racemic) [Example 15, (±)-3-(2-ethoxy-5-methoxy-phenyl)-3-[2-(1-methyl-4-piperidyl)-2,6-diazaspiro[3.3]heptan-6-yl]-2-oxo-1-(p-tolylsulfonyl)indoline-5-carbonitrile]
6 | ++ (25-75) | 7.00 to 8.00 | CCOc1ccc(OC)cc1C1(N2CC3(CN(C4CCN(C)CC4)C3)C2)C(=O)N(S(=O)(=O)c2ccc(F)cc2)c2ccc(C#N)cc21 (racemic) [Example 16, (±)-3-(2-ethoxy-5-methoxy-phenyl)-1-(4-fluorophenyl)sulfonyl-3-[2-(1-methyl-4-piperidyl)-2,6-diazaspiro[3.3]heptan-6-yl]-2-oxo-indoline-5-carbonitrile]
7 | +++ (>75) | > 9.00 | CCOc1ccc(OC)cc1C1(N2CC3(CC(N4CCN(C)CC4)C3)C2)C(=O)N(S(=O)(=O)c2ccc(OC)cn2)c2ccc(C#N)cc21 (racemic) [Example 17, (±)-3-(2-ethoxy-5-methoxy-phenyl)-1-[(5-methoxy-2-pyridyl)sulfonyl]-3-[2-(4-methylpiperazin-1-yl)-6-azaspiro[3.3]heptan-6-yl]-2-oxo-indoline-5-carbonitrile]
8 | +++ (>75) | > 9.00 | COc1ccc(S(=O)(=O)N2C(=O)C(c3ccccc3OC)(N3CC4(CN(C5CCN(C)CC5)C4)C3)c3cc(C#N)ccc32)nc1 (racemic) [Example 18, (±)3-(2-methoxyphenyl)-1-[(5-methoxy-2-pyridyl)sulfonyl]-3-[2-(1-methyl-4-piperidyl)-2,6-diazaspiro[3.3]heptan-6-yl]-2-oxo-indoline-5-carbonitrile]
9 | +++ (>75) | > 9.00 | CCOc1ccc(OC)cc1C1(N2CC3(CN(C4CCN(C(C)C)CC4)C3)C2)C(=O)N(S(=O)(=O)c2ccc(OC)cn2)c2ccc(C#N)cc21 (racemic) [Example 19, (±)-3-(2-ethoxy-5-methoxy-phenyl)-3-[2-(1-isopropyl-4-piperidyl)-2,6-diazaspiro[3.3]heptan-6-yl]-1-[(5-methoxy-2-pyridyl)sulfonyl]-2-oxo-indoline-5-carbonitrile]
10 | +++ (>75) | 8.00 to 9.00 | CCOc1ccc(OC)cc1C1(N2CC3(CN(C4CCN(CCOC)CC4)C3)C2)C(=O)N(S(=O)(=O)c2ccc(OC)cn2)c2ccc(C#N)cc21 (racemic) [Example 20, (±)-3-(2-ethoxy-5-methoxy-phenyl)-3-[2-[1-(2-methoxyethyl)-4-piperidyl]-2,6-diazaspiro[3.3]heptan-6-yl]-1-[(5-methoxy-2-pyridyl)sulfonyl]-2-oxo-indoline-5-carbonitrile]
11 | + (10-<25) | > 9.00 | COc1ccc(S(=O)(=O)N2C(=O)C(c3cc(OC)ccc3OC)(N3CC4(CN(C5CCN(C)CC5)C4)C3)c3cc(C#N)ccc32)nc1 (racemic) [Example 21, (±)-3-(2,5-dimethoxyphenyl)-1-[(5-methoxy-2-pyridyl)sulfonyl]-3-[2-(1-methyl-4-piperidyl)-2,6-diazaspiro[3.3]heptan-6-yl]-2-oxo-indoline-5-carbonitrile]
12 | + (10-<25) | 8.00 to 9.00 | COc1ccc(S(=O)(=O)N2C(=O)C(c3cccnc3OC)(N3CC4(CN(C5CCN(C)CC5)C4)C3)c3cc(C#N)ccc32)nc1 (racemic) [Example 22, (±)-3-(2-methoxy-3-pyridyl)-1-[(5-methoxy-2-pyridyl)sulfonyl]-3-[2-(1-methyl-4-piperidyl)-2,6-diazaspiro[3.3]heptan-6-yl]-2-oxo-indoline-5-carbonitrile]
13 | ++ (25-75) | 8.00 to 9.00 | COc1ccc(S(=O)(=O)N2C(=O)C(c3ccccc3OC)(N3CC4(CC(N5CCN(C)CC5)C4)C3)c3cc(C#N)ccc32)nc1 (racemic) [Example 26, (±)-3-(2-methoxyphenyl)-1-[(5-methoxy-2-pyridyl)sulfonyl]-3-[2-(4-methylpiperazin-1-yl)-6-azaspiro[3.3]heptan-6-yl]-2-oxo-indoline-5-carbonitrile]
14 | +++ (>75) | 8.00 to 9.00 | CCOc1ncccc1C1(N2CC3(CC(N4CCN(C)CC4)C3)C2)C(=O)N(S(=O)(=O)c2ccc(OC)cn2)c2ccc(C#N)cc21 (racemic) [Example 27, (±)-3-(2-ethoxy-3-pyridyl)-1-[(5-methoxy-2-pyridyl)sulfonyl]-3-[2-(4-methylpiperazin-1-yl)-6-azaspiro[3.3]heptan-6-yl]-2-oxo-indoline-5-carbonitrile]
15 | +++ (>75) | 8.00 to 9.00 | CCOc1ccc(OC)cc1C1(N2CC3(CC(N4CCN(C5COC5)CC4)C3)C2)C(=O)N(S(=O)(=O)c2ccc(OC)cn2)c2ccc(C#N)cc21 (racemic) [Example 28, (±)-3-(2-ethoxy-5-methoxy-phenyl)-1-[(5-methoxy-2-pyridyl)sulfonyl]-3-[2-[4-(oxetan-3-yl)piperazin-1-yl]-6-azaspiro[3.3]heptan-6-yl]-2-oxo-indoline-5-carbonitrile]
16 | + (10-<25) | 8.00 to 9.00 | COc1ccc(S(=O)(=O)N2C(=O)C(c3cccnc3C(C)(F)F)(N3CC4(CN(C5CCN(C)CC5)C4)C3)c3cc(C#N)ccc32)nc1 (racemic) [Example 30, (±)-3-[2-(1,1-difluoroethyl)-3-pyridyl]-1-[(5-methoxy-2-pyridyl)sulfonyl]-3-[2-(1-methyl-4-piperidyl)-2,6-diazaspiro[3.3]heptan-6-yl]-2-oxo-indoline-5-carbonitrile]
17 | +++ (>75) | > 9.00 | CCOc1ccc(OC)cc1C1(N2CC3(CN(C4CCN(C)CC4)C3)C2)C(=O)N(S(=O)(=O)c2ccc(OC)cn2)c2ccc(C#N)cc21 (single isomer, unassigned; (+)) [Example 1A, (+)-3-(2-ethoxy-5-methoxy-phenyl)-1-[(5-methoxy-2-pyridyl)sulfonyl]-3-[2-(1-methyl-4-piperidyl)-2,6-diazaspiro[3.3]heptan-6-yl]-2-oxo-indoline-5-carbonitrile]
18 | +++ (>75) | > 9.00 | CCOc1ncccc1C1(N2CC3(CN(C4CCN(C)CC4)C3)C2)C(=O)N(S(=O)(=O)c2ccc(OC)cn2)c2ccc(C#N)cc21 (single isomer, unassigned; (+)) [Example 9A, (+)-3-(2-ethoxy-3-pyridyl)-1-[(5-methoxy-2-pyridyl)sulfonyl]-3-[2-(1-methyl-4-piperidyl)-2,6-diazaspiro[3.3]heptan-6-yl]-2-oxo-indoline-5-carbonitrile]
19 | +++ (>75) | > 9.00 | CCOc1ccc(OC)cc1C1(N2CC3(CN(C4CCN(C5COC5)CC4)C3)C2)C(=O)N(S(=O)(=O)c2ccc(OC)cn2)c2ccc(C#N)cc21 (single isomer, unassigned; (+)) [Example 11, (+)-3-(2-ethoxy-5-methoxyphenyl)-1-((5-methoxypyridin-2-yl)sulfonyl)-3-(6-(1-(oxetan-3-yl)piperidin-4-yl)-2,6-diazaspiro[3.3]heptan-2-yl)-2-oxoindoline-5-carbonitrile]
